Experimental findings from patent US9957264B2 (Merck Sharp & Dohme Corp., priority 2013, dated 2018) are described below.

By IC50 is commonly meant the point on the concentration scale where inhibition reaches its midpoint.

The target of assay [1] is JAK2 (recombinant purified GST-tagged catalytic domain) (Homo sapiens (Human), UniProt O60674). Kind of assay: Jak Biochemical HTRF Assay (JAK2). Conditions: [ATP] 8.5 μM.
The target in assay [2] is JAK1 (recombinant purified GST-tagged catalytic domain) (Homo sapiens (Human), UniProt P23458). Description: Jak Biochemical HTRF Assay (JAK1). Conditions: [ATP] 31.8 μM. In outline:
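GST-tagged human catalytic domains of JAK1 or JAK2 phosphorylated a biotinylated peptide substrate for 120 min at room temperature after ATP addition. Reaction quenched with EDTA stop buffer containing streptavidin-Dylight 650 and Eu-pY20 antibody; HTRF 665/615 nm ratio normalized to untreated controls, IC50 from 4-parameter fit.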
A general note: Time-resolved FRET reads energy transfer from a long-lived donor to a nearby acceptor.

Chain of JAK1 (recombinant purified GST-tagged catalytic domain) (P23458 875-1153): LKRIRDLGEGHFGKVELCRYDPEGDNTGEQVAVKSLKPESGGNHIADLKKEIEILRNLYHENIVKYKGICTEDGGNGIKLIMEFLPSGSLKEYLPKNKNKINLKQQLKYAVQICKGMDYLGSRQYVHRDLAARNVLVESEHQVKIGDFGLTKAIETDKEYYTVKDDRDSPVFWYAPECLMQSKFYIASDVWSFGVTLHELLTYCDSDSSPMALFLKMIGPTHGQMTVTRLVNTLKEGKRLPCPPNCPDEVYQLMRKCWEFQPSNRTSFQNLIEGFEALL
Chain of JAK2 (recombinant purified GST-tagged catalytic domain) (O60674 849-1124): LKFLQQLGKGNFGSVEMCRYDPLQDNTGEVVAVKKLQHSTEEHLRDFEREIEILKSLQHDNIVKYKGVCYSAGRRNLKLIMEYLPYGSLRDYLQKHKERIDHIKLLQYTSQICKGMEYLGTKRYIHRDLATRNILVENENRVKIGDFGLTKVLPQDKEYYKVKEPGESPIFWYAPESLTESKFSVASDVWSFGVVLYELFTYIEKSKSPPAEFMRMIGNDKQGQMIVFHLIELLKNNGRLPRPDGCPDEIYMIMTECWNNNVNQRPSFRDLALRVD

`CN(C(C)(C)C)S(=O)(=O)c1ccc(Nc2nn([C@]3(CC#N)CC[C@@H](C(=O)OC(C)(C)C)OC3)c3cc[nH]c(=O)c23)cc1` [Example 5-90, (2S,5S)-tert-butyl 5-(3-((4-(N-(tert-butyl)-N-methylsulfamoyl)phenyl)amino)-4-oxo-4,5-dihydro-1H-pyrazolo[4,3-c]pyridin-1-yl)-5-(cyanomethyl)tetrahydro-2H-pyran-2-carboxylate]: the results for the IC50 in assay [1] and in assay [2] were 0.41 nM and 0.33 nM, respectively.

Regarding `Cc1cc(Nc2nn([C@]3(CC#N)CCOC[C@@H]3F)c3cc[nH]c(=O)c23)ccc1C(=O)N1CCOCC1` (single isomer, unassigned) [Example 5-258, 2-((3R,4R or 3S,4S)-3-fluoro-4-(3-((3-methyl-4-(morpholine-4-carbonyl)phenyl)amino)-4-oxo-4,5-dihydro-1H-pyrazolo[4,3-c]pyridin-1-yl)tetrahydro-2H-pyran-4-yl)acetonitrile], the IC50 is 0.08 nM in assay [1] and 0.07 nM in assay [2].

Regarding `COC(=O)N1CCC(CC#N)(n2nc(Nc3ccc4c(c3)CN(C(C)(C)C)S4(=O)=O)c3c(=O)[nH]ccc32)CC1` [Example 5-71, methyl 4-{3-[(2-tert-butyl-1,1-dioxo-2,3-dihydro-1,2-benzothiazol-5-yl)amino]-4-oxo-1H,4H,5H-pyrazolo [4,3-c]pyridin-1-yl}-4-(cyanomethyl)piperidine-1-carboxylate], the IC50 amounted to 0.15 nM in assay [1] and 0.08 nM in assay [2].

For the molecule `N#CCC1(n2nc(Nc3ccc(F)cc3)c3c(=O)[nH]ccc32)CCNCC1` [Example 6, (4-{3-[(4-fluorophenyl)amino]-4-oxo-4,5-dihydro-1H-pyrazolo[4,3-c]pyridin-1-yl}piperidin-4-yl)acetonitrile], the IC50 in assay [1] is above 1500 nM; in assay [2], 421 nM.

With `CO[C@@H]1CCN(C(=O)c2ccc(Nc3nn([C@]4(CC#N)CCCOC4)c4cc[nH]c(=O)c34)cc2C)C1` [Example 5-117, 2-((S)-3-(3-((4-((R)-3-methoxypyrrolidine-1-carbonyl)-3-methylphenyl)amino)-4-oxo-4,5-dihydro-1H-pyrazolo[4,3-c]pyridin-1-yl)tetrahydro-2H-pyran-3-yl)acetonitrile], the IC50 in assay [1] amounted to 1.36 nM; in assay [2] it was 0.45 nM.

`CC(C)(C)OC(=O)[C@@H]1CC[C@@](CC#N)(n2nc(Nc3ccc(S(=O)(=O)C4CC4)cc3)c3c(=O)[nH]ccc32)CO1` [Example 5-99, (2S,5S)-tert-butyl 5-(cyanomethyl)-5-(3-((4-(cyclopropylsulfonyl)phenyl)amino)-4-oxo-4,5-dihydro-1H-pyrazolo [4,3-c]pyridin-1-yl) tetrahydro-2H-pyran-2-carboxylate]: the IC50 in assay [1] was determined as 0.14 nM; in assay [2], 0.05 nM.

Regarding `N#CC[C@@]1(n2nc(Nc3ccc(C#N)cc3)c3c(=O)[nH]ccc32)CCOC1` (single isomer, unassigned) [Example 5-239, 4-({1-[(3R or 3S)-3-(cyanomethyl)tetrahydrofuran-3-yl]-4-oxo-4,5-dihydro-1H-pyrazolo[4,3-c]pyridin-3-yl}amino)benzonitrile], the IC50 in assay [1] is 16.7 nM; in assay [2], 2.29 nM.

As for `COC(=O)[C@H]1CC[C@](CC#N)(n2nc(Nc3ccc(S(C)(=O)=O)cc3)c3c(=O)[nH]ccc32)CO1` (single isomer, unassigned) [Example 5-34, (2S,5S or 2R,5R)-methyl 5-(cyanomethyl)-5-(3-((4-(methylsulfonyl)phenyl)amino)-4-oxo-4,5-dihydro-1H-pyrazolo[4,3-c]pyridin-1-yl)tetrahydro-2H-pyran-2-carboxylate], the half-inhibitory concentration (IC50) in assay [1] was determined as 22.6 nM; in assay [2], 4.74 nM.

For `CC(c1c(F)cccc1F)N1CCC(CC#N)(n2nc(Nc3ccc(S(=O)(=O)N(C)C)cc3)c3c(=O)[nH]ccc32)CC1` (centres unmarked) [Example 8-17, 4-((1-(4-(cyanomethyl)-1-(1-(2,6-difluorophenyl)ethyl)piperidin-4-yl)-4-oxo-4,5-dihydro-1H-pyrazolo[4,3-c]pyridin-3-yl)amino)-N,N-dimethylbenzenesulfonamide], the IC50 was found to be 3.26 nM in assay [1] and 1.4 nM in assay [2].

`CC(C)(C)OC(=O)[C@@H]1CC[C@@](CC#N)(n2nc(Nc3ccc4nc(C#N)ccc4c3)c3c(=O)[nH]ccc32)CO1` [Example 5-216, (2S,5S)-tert-butyl 5-(cyanomethyl)-5-(3-((2-cyanoquinolin-6-yl)amino)-4-oxo-4,5-dihydro-1H-pyrazolo[4,3-c]pyridin-1-yl)tetrahydro-2H-pyran-2-carboxylate]: the IC50 stood at 1.16 nM in assay [1] and 0.14 nM in assay [2].

For `CC(c1ccc(Nc2nn([C@]3(CC#N)CCCOC3)c3cc[nH]c(=O)c23)cc1)N1CCCC1` (single isomer, unassigned) [Example 5-201, {(3S)-3-[4-oxo-3-({4-[(1R or 1S)-1-pyrrolidin-1-ylethyl]phenyl}amino)-4,5-dihydro-1H-pyrazolo[4,3-c]pyridin-1-yl]tetrahydro-2H-pyran-3-yl}acetonitrile], the IC50 in assay [1] came out at 0.27 nM; in assay [2], 0.49 nM.

With `CN(C)S(=O)(=O)c1ccc(Nc2nn(C3(CC#N)CCN(Cc4ccc(-c5ccon5)cc4)CC3)c3cc[nH]c(=O)c23)cc1` [Example 8-13, 4-({1-[4-(cyanomethyl)-1-(4-isoxazol-3-ylbenzyl)piperidin-4-yl]-4-oxo-4,5-dihydro-1H-pyrazolo[4,3-c]pyridin-3-yl}amino)-N,N-dimethylbenzenesulfonamide], the results for the IC50 in assay [1] and in assay [2] were 0.75 nM and 0.31 nM, respectively.

Regarding `CN(C(C)(C)C)S(=O)(=O)c1ccc(Nc2nn([C@]3(CC#N)CCCOC3)c3cc[nH]c(=O)c23)cc1` [Example 5-182, N-tert-butyl-4-({1-[(3S)-3-(cyanomethyl)tetrahydro-2H-pyran-3-yl]-4-oxo-4,5-dihydro-1H-pyrazolo[4,3-c]pyridin-3-yl}amino)-N-methylbenzenesulfonamide], the IC50 worked out at 0.57 nM in assay [1] and 0.25 nM in assay [2].

For `CC(C)(C)OC(=O)N1CCC(CC#N)(n2nc(Nc3cc(Cn4ccnn4)cc(Cn4ccnn4)c3)c3c(=O)[nH]ccc32)CC1` [Example 5-62, tert-butyl 4-(3-(3,5-bis((1H-1,2,3-triazol-1-yl)methyl)phenylamino)-4-oxo-4,5-dihydropyrazolo[4,3-c]pyridin-1-yl)-4-(cyanomethyl)piperidine-1-carboxylate], the 50% inhibitory concentration (IC50) worked out at 0.32 nM in assay [1] and 0.31 nM in assay [2].

For `CC(C)(C)OC(=O)N1CCC(CC#N)(n2nc(Nc3ccc(S(=O)(=O)NC4CCCCC4)cc3)c3c(=O)[nH]ccc32)CC1` [Example 5-292, tert-butyl 4-(cyanomethyl)-4-(3-((4-(N-cyclohexylsulfamoyl)phenyl)amino)-4-oxo-4,5-dihydro-1H-pyrazolo[4,3-c]pyridin-1-yl)piperidine-1-carboxylate], the IC50 in assay [1] amounted to 1.92 nM; in assay [2], 1.2 nM.

In the case of `CC(C)(C)OC(=O)N1CC[C@](CC#N)(n2nc(Nc3ccc([C@H](O)C(F)(F)F)cc3)c3c(=O)[nH]ccc32)[C@H](F)C1` (single isomer, unassigned) [Example 5-20, tert-butyl (3R,4R)-4-(cyanomethyl)-3-fluoro-4-[4-oxo-3-({4-[(1S or 1R)-2,2,2-trifluoro-1-hydroxyethyl]phenyl}amino)-4,5-dihydro-1H-pyrazolo [4,3-c]pyridin-1-yl] piperidine-1-carboxylate], the figures for the IC50 in assay [1] and in assay [2] were 0.12 nM and 0.15 nM, respectively.

Turning to `CC(C)NC(C)(C)c1ccc(Nc2nn(C3(CC#N)CCN(C(=O)OC(C)(C)C)CC3)c3cc[nH]c(=O)c23)cc1` [Example 5-276, tert-butyl 4-(cyanomethyl)-4-{3-[(4-{1-methyl-1-[(1-methylethyl)amino]ethyl}phenyl)amino]-4-oxo-4,5-dihydro-1H-pyrazolo[4,3-c]pyridin-1-yl}piperidine-1-carboxylate], the IC50 is 0.4 nM in assay [1] and 0.57 nM in assay [2].

`CC(C)NS(=O)(=O)c1ccc(Nc2nn(C3(CC#N)CCN(C(=O)OC(C)(C)C)CC3)c3cc[nH]c(=O)c23)cc1F` [Example 5-295, tert-butyl 4-(cyanomethyl)-4-(3-((3-fluoro-4-(N-isopropylsulfamoyl)phenyl)amino)-4-oxo-4,5-dihydro-1H-pyrazolo[4,3-c]pyridin-1-yl)piperidine-1-carboxylate]: the IC50 in assay [1] came to 0.6 nM; in assay [2], 0.42 nM.

With `CN(C)S(=O)(=O)c1ccc(Nc2nn(C3(CC#N)CCN(C(=O)CC(C)(C)C)CC3)c3cc[nH]c(=O)c23)cc1` [Example 9-23, 4-({1-[4-(cyanomethyl)-1-(3,3-dimethylbutanoyl)piperidin-4-yl]-4-oxo-4,5-dihydro-1H-pyrazolo[4,3-c]pyridin-3-yl}amino)-N,N-dimethylbenzenesulfonamide], the figures for the half-inhibitory concentration (IC50) in assay [1] and in assay [2] were 1.32 nM and 0.14 nM, respectively.

Consider `Cc1cc(Nc2nn([C@]3(CC#N)CCCOC3)c3cc[nH]c(=O)c23)ccc1C(=O)N1CCCC[C@@H]1C` [Example 20-2, 2-((S)-3-(3-((3-methyl-4-((S)-2-methylpiperidine-1-carbonyl)phenyl)amino)-4-oxo-4,5-dihydro-1H-pyrazolo[4,3-c]pyridin-1-yl)tetrahydro-2H-pyran-3-yl)acetonitrile], for which the values for the IC50 in assay [1] and in assay [2] were 0.62 nM and 0.43 nM, respectively.

In the case of `CN(C)S(=O)(=O)c1ccc(Nc2nn(C3(CC#N)CCN(C(=O)CCC4CC4)CC3)c3cc[nH]c(=O)c23)cc1` [Example 9-11, 4-({1-[4-(cyanomethyl)-1-(3-cyclopropylpropanoyl)piperidin-4-yl]-4-oxo-4,5-dihydro-1H-pyrazolo[4,3-c]pyridin-3-yl}amino)-N,N-dimethylbenzenesulfonamide], the IC50 in assay [1] worked out at 1.15 nM; in assay [2] it was 0.14 nM.

In the case of `COC(c1ccc(Nc2nn([C@@]3(CC#N)CCN(C(=O)OC(C)(C)C)C[C@H]3F)c3cc[nH]c(=O)c23)cc1)C(F)(F)F` (some centres unmarked) [Example 5-275], the figures for the IC50 in assay [1] and in assay [2] were 0.09 nM and 0.17 nM, respectively.
